Assay results published in ChEMBL document CHEMBL1201862, “PubChem BioAssay data set” (2004).
Activity calls are given as the source filed them.

Columns and labels:
[1] = ZM109 Env clade C HIV-1 fusion inhibitors, dose response, HeLa effector, CEM target cells, luciferase, cherry-pick (AID 652058); assay type: functional, cell-based
[2] = inhibitors of HIV Env-driven cell fusion, dose response, cherry-pick (AID 652057); assay type: functional, cell-based
[3] = off-target signal loss in HeLa-CEM21 co-culture – HeLa F-luc CTL cells, cherry-picked, counter-screen for HIV-1 Env fusion inhibitor project, dose response (AID 652040); assay type: functional, cell-based;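 also: potency for signal decrease marking cytotoxic or nonspecific inhibition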
[4] = inhibitors of firefly luciferase expression or activity, dose response, H4 neuroglioma cells, luminescence (AID 1990); assay type: functional, cell-based
[5] = Luminescence Cell-Based Dose Response HTS to Identify Inhibitors of 5'UTR Stem-Loop Driven Prion Protein mRNA Translation in H4 Neuroglioblastoma Cells. [Related pubchem assays: 1827 (Project Summary), 1813 (Primary HTS)]; assay type: functional
[6] = molecular target: T1, Ubiquitin-conjugating enzyme E2 N (Homo sapiens, UniProt P61088); assay type: functional;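 also: Dose-response confirmation in a TR-FRET assay detecting UBC13-driven polyubiquitin chain formation, inhibition measured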
T1 sequence (P61088 whole entry): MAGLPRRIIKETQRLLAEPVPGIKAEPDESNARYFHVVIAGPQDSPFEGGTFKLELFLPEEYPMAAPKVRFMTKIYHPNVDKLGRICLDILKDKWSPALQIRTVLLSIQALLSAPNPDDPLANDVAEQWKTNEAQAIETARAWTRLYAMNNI

[7] = inhibitors of SNCA 5'UTR-driven reporter translation, confirmation, H4 neuroglioma cells, luminescence (AID 1988); assay type: functional, cell-based
Genome polyprotein = Genome polyprotein (dengue virus type 2, UniProt P29990); assay: Dengue-2 NS5 methyltransferase inhibitors, primary screen, biochemical, confirmation dose response (AID 588689); assay type: functional
[8] = molecular target: T2, Replicative DNA helicase DnaB (Mycobacterium tuberculosis, UniProt P9WMR3); assay: DnaB intein splicing inhibitors, dose response, biochemical, cell-free fluorescence (AID 449749); assay type: functional
T2 sequence (P9WMR3 whole entry): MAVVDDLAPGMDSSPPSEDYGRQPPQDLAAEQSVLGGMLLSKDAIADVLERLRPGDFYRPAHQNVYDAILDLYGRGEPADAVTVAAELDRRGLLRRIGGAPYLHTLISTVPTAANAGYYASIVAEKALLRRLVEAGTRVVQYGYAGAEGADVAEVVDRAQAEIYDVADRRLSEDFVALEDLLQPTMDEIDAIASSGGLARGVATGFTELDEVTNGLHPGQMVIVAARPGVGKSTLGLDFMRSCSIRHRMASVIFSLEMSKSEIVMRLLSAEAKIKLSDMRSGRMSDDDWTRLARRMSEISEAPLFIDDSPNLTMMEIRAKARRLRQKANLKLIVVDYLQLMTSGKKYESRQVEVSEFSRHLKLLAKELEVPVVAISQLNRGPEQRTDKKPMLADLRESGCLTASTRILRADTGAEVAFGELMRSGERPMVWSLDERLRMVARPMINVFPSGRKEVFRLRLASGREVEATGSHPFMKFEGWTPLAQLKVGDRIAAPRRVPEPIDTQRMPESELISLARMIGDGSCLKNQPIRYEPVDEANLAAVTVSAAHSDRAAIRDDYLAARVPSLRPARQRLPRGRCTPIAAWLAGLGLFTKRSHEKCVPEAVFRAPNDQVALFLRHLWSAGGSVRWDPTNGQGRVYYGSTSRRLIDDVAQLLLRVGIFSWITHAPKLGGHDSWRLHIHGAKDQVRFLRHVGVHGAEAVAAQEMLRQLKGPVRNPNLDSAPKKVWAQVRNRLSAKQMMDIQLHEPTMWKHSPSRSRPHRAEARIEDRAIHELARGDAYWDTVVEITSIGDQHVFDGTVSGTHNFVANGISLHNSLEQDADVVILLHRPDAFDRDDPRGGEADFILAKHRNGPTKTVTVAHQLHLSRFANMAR

Protein RecA = molecular target: T3, Protein RecA (Mycobacterium tuberculosis, UniProt P9WHJ3); assay: Fluorescence Cell-Free Homogeneous Dose Retest to Identify Inhibitors of RecA-Intein Splicing Activity. [Related pubchem assays (depositor defined):AID2097, AID2223, AID489010, AID492950]; assay type: functional
T3 sequence (P9WHJ3 whole entry): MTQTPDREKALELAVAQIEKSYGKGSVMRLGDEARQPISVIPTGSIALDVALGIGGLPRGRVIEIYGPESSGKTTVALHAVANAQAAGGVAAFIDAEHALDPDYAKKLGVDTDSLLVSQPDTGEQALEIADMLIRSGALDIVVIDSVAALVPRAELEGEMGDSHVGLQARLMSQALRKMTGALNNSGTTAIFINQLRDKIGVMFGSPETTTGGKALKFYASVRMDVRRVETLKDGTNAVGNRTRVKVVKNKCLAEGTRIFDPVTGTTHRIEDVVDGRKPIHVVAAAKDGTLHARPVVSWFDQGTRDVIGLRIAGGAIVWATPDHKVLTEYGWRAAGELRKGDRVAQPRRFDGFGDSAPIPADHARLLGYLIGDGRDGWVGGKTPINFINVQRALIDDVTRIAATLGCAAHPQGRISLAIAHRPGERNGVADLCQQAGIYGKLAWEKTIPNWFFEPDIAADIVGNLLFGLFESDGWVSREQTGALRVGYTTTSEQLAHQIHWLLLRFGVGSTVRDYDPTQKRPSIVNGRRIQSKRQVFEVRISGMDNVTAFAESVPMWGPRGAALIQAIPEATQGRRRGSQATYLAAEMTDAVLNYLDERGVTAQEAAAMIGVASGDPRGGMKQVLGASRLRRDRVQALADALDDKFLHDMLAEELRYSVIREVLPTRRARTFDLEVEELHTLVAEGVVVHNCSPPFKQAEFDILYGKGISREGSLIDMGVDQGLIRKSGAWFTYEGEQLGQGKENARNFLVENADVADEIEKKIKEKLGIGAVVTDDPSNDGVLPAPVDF

[9] = inhibitors of clade B AD8 Env fusion, dose response, cell-based, cherry-pick (AID 652062); assay type: functional;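 also: luciferase signal from cell-cell fusion driven by HIV-1 clade B AD8 Env; potency is for inhibitors of fusion seen as a drop in luminescence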
Fatty acid synthase [10] = molecular target: T4, Fatty acid synthase (Homo sapiens, UniProt P49327); assay: FAS thioesterase domain inhibitors, dose response, biochemical, kinetic fluorescence intensity (AID 624326); assay type: functional;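 also: rate of fluorescence rise from hydrolysis of a fluorogenic O-methyl fluorescein ester substrate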
Fatty acid synthase [11] = molecular target: T4, Fatty acid synthase; assay: FAS thioesterase domain inhibitors, dose response, biochemical, endpoint fluorescence intensity, uHTS hits (AID 624327); assay type: functional;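 also: fluorescence from hydrolysis of an O-methyl fluorescein acyl ester substrate by the enzyme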
[12] = cytotoxicity toward NIH3T3 fibroblasts, dose response, counter-screen, cell-based, ATP luminescence, mouse fibroblasts (AID 2010); assay type: functional;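 also: cells exposed to compound for about 90 hours before reading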
[13] = C. albicans growth with fluconazole, confirmation, fluorescence, retest (AID 2467); assay type: functional, cell-based
[14] = NIH-3T3 fibroblast cytotoxicity, dose response, cytotoxicity control, cell-based, fluorescence, Alamar Blue, secondary assay (AID 2327); assay type: functional;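 also: NIH-3T3 mouse fibroblasts cultured with fluconazole at 8 µg/mL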
[15] = inhibitors of intracellular T. cruzi replication, confirmation, NIH3T3 host cells, beta-gal luminescence (AID 2044); assay type: functional, cell-based;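 also: intracellular parasites grown in NIH/3T3 mouse fibroblasts as host cells; luminescent beta-galactosidase reporter signal from transgenic T. cruzi replicating inside host cells; inhibitors lower the luminescence signal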
[16] = molecular target: T5, Corticotropin-releasing factor receptor 2/Corticotropin-releasing factor-binding protein (Homo sapiens, UniProt P24387+Q13324); assay: activators of CRF receptor 2 with binding protein – uHTS hits, confirmation (AID 602473); assay type: functional; details: read-out: EC50_Mean
T5 sequence (Q13324 whole entry): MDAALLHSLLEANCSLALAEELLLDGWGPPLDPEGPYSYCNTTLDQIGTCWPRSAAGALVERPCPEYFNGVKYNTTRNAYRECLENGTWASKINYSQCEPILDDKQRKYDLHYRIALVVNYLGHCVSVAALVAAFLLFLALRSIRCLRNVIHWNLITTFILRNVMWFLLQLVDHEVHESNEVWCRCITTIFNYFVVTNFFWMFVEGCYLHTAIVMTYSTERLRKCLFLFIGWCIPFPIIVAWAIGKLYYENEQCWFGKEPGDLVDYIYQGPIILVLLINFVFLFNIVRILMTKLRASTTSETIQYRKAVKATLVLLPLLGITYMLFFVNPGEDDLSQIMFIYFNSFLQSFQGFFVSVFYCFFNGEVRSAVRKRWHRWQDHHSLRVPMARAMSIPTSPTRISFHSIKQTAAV
T5 sequence (P24387 whole entry): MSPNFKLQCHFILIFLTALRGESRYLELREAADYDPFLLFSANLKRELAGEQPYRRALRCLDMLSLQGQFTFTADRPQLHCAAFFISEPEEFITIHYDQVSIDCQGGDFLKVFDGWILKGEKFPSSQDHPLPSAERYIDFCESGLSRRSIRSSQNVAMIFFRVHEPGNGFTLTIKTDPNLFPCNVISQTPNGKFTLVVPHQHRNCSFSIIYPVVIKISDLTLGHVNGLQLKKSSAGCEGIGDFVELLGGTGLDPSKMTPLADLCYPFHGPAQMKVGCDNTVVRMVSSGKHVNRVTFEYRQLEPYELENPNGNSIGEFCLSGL

[17] = Shn3 3'UTR reporter inhibitors, dose response, cell-based, Clone20 osteoblasts, firefly luciferase, cherry-picked (AID 624132); assay type: functional;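 also: firefly luciferase luminescence from reporter carrying the Shn3 3'UTR in osteoblasts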
[18] = Luminescence Cell-Based Dose Retest to Confirm Inhibitors of Cancer Stem Cells. [Related pubchem assays (depositor defined):AID2717, AID2721]; assay type: functional; details: Homo sapiens

## O=C(C1CCCCC1)N1CCCC(c2nc(O)c3nnn(Cc4ccccc4)c3n2)C1 (centres undefined)
[1]
  AC50: 18.5 µM (active)
[2]
  AC50: 11.1 µM (active)
[3]
  AC50: > 70 µM (inactive)

## CCOC(=O)c1cc(-c2ccc(OC)cc2F)nc2c1c(C)nn2CCC#N
[4]
  EC50: 17.7 µM (active)
[5]
  EC50: 20.2 µM (active)
[6]
  IC50: > 20 µM (inactive)
[7]
  EC50: 23.3 µM (active)

## Cc1ccccc1N1C(=O)C(Cl)=C(N2CCOCC2)C1=O
Genome polyprotein
  IC50: 43.7 µM (active)
[8]
  AC50: 13 µM (active)
Protein RecA
  EC50: 4.98 µM (active)

## COC(=O)[C@@]12CCCN1[C@H](c1ccc(-c3ccc(F)cc3)c(OC)c1)[C@H]1C(=O)N(C)C(=O)[C@H]12
[1]
  AC50: 1.38 µM (active)
[2]
  AC50: 2.93 µM (active)
[9]
  AC50: 25.5 µM (active)

## Cc1ccc(C(=O)NCCSC(C)(C)C)cc1[N+](=O)[O-]
Fatty acid synthase [10]
  IC50: 8.25 µM (active)
Fatty acid synthase [11]
  IC50: 11.7 µM (active)

## O=C(Nc1cc(S(=O)(=O)N2CCOCC2)ccc1O)c1ccc2c(c1)S(=O)(=O)c1ccccc1C2=O
Genome polyprotein
  IC50: 49.6 µM (active)

## CCc1cccc(NC(=O)C2CCN(S(=O)(=O)c3ccc4c(c3)CC(C)N4C(C)=O)CC2)c1 (centres undefined)
[1]
  AC50: 6.68 µM (active)
[2]
  AC50: 30.3 µM (active)
[9]
  AC50: 10.6 µM (active)
[3]
  AC50: 48.5 µM (active)

## CC[C@H](C)Cc1cn([C@@H](CCCN=C(NC(=O)OC(C)(C)C)NC(=O)OC(C)(C)C)C(=O)NCCCCCCCCCCC(=O)N2CCN(C(=O)OC(C)(C)C)CC2)nn1
[12]
  EC50: > 30 µM (not active)
[6]
  IC50: > 20 µM (inactive)
[13]
  EC50: > 38 µM (not active)
[14]
  EC50: 83.3 µM (inconclusive)
[15]
  EC50: 1.04 µM (active)

## CC(=O)c1ccc(OCCCC(=O)NNC(=O)c2ccccn2)cc1
[6]
  IC50: > 20 µM (inactive)

## CCNC(=O)c1ccccc1NC(=O)c1cccc(S(=O)(=O)N2CCC(C)CC2)c1
[6]
  IC50: > 20 µM (inactive)

## O=C(O)CCc1ccc(-c2ccc(Br)cc2)n1-c1ccc(O)cc1
Genome polyprotein
  IC50: > 100 µM (active)

## COc1ccc(C(CC(=O)Nc2cc([N+](=O)[O-])ccc2OC)c2ccccc2)cc1 (centres undefined)
Fatty acid synthase [10]
  IC50: 12.5 µM (active)
Fatty acid synthase [11]
  IC50: 12.9 µM (active)

## COc1ccc(C(C2C(=O)CC(C)(C)CC2=O)C2C(=O)CC(C)(C)CC2=O)cc1
Genome polyprotein
  IC50: 30.4 µM (active)

## Cc1cc(N2CCCCC2)nc(N)n1
[16]
  EC50: 6.28 µM (active)

## Sc1nnc(COc2cccc3ccccc23)n1Cc1ccccc1
[17]
  AC50: 48 µM (active)

## Cc1cc(-n2c(C)cc(C(=O)CSc3nc4ccccc4c(=O)n3Cc3ccco3)c2C)no1
[16]
  EC50: > 53 µM (inactive)

## Cc1cccc(NC(=O)CSc2nc3c(oc4ccccc43)c(=O)n2-c2ccccc2)c1
Fatty acid synthase [10]
  IC50: 51.3 µM (inactive)
Fatty acid synthase [11]
  IC50: 25.6 µM (inactive)

## Cc1ccc(-n2nc3c(c2NC(=O)c2ccco2)C[S+]([O-])C3)cc1 (centres undefined)
[3]
  AC50: 7.72 µM (active)

## O=C1C(Cl)=C(N2CCCC2)C(=O)N1c1ccccc1F
Genome polyprotein
  IC50: 84.4 µM (active)

## COc1ccc(/C=C2/C(=O)NC(=O)N(c3ccc(C)c(C)c3)C2=O)cc1CN1C(=O)c2ccccc2C1=O
Genome polyprotein
  IC50: 99.5 µM (active)

## O=C(/C=C/c1cccc([N+](=O)[O-])c1)NCCSCc1ccco1
Fatty acid synthase [10]
  IC50: 10.1 µM (active)
Fatty acid synthase [11]
  IC50: 6.86 µM (active)

## Cc1ccc(S(=O)(=O)N(C)C)cc1NC(=O)COc1ccccc1C(=O)Nc1ccccc1
[1]
  AC50: 2.56 µM (active)
[2]
  AC50: 1.78 µM (active)
[9]
  AC50: 8.41 µM (active)
[3]
  AC50: 3.87 µM (active)

## CC(C)(C)C1CCC(CN2C(Nc3ccccc3)=NC[C@@H]2Cc2ccccc2)CC1 (some centres undefined)
[18]
  AC50: 6.47 µM (active)
[6]
  IC50: > 20 µM (inactive)

## COc1ccc(S(=O)(=O)Nc2ccc3c(c2)CC(=O)N([C@H](C)CO)C[C@H](C)[C@H](CN(C)S(=O)(=O)c2ccc(F)cc2)O3)cc1
[2]
  AC50: 0.384 µM (active)
[9]
  AC50: 10.6 µM (active)
